{
  "source": "patent US20020137929A1",
  "about": "“1 - (3-heterocyclylphenyl) isothiourea, -isourea, -guanidine and -amidine herbicidal agents” (Intellectual Property Department, BASF Aktiengesellschaft, priority 1998, published 2002)",
  "key": {"ORYSAT (Rice, Tebonnet)": {"system": "ORYSAT (Rice, Tebonnet)", "experiment": "Preemergence herbicidal evaluation", "type": "in vivo, Oryza sativa, (L.) Tebonnet", "settings": "rated 4-5 weeks after treatment", "how_it_was_run": "(§1)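 Scores (0–9) reflect visual comparison with control plants for stand, vigor, malformation, size and chlorosis. Compound was applied to the soil after sowing, before emergence, as an aqueous acetone spray (about 0.0156–0.500 kg/ha), and cups were kept in a greenhouse for 4–5 weeks.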"}, "[1]": {"system": "ECHORC (Watergrass (Calif.))", "experiment": "Preemergence weed control under flooded paddy conditions", "type": "in vivo, Echinochloa oryzoides", "settings": "rated 3-4 weeks after treatment", "how_it_was_run": "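Seeds or propagules sown in top 0.5 cm of silt loam soil, flooded 1.5 to 3 cm above surface throughout. Compound in 50/50 v/v aqueous/acetone pipetted into flood water at about 0.0313 to 0.500 kg/ha. Visual 0-9 rating versus control after three to four weeks in greenhouse.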"}, "[2]": {"system": "TRZAWR (Wheat, Winter, cv Riband)", "experiment": "Preemergence herbicidal evaluation", "type": "in vivo, Triticum aestivum", "settings": "rated 4-5 weeks after treatment", "how_it_was_run": "as §1"}, "[3]": {"system": "ECHORC (Watergrass (Calif.))", "experiment": "Postemergence weed control under flooded paddy conditions", "type": "in vivo, Echinochloa oryzoides", "settings": "postemergence weeds, 3-4 weeks after treatment", "how_it_was_run": "(§2)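 With weeds 3 to 5 cm tall and rice at the 1.5 to 2.5 leaf stage, containers were flooded and water held 1.5 to 3 cm above soil. Compounds in 50/50 v/v aqueous/acetone went into the flood water at about 0.0313 to 0.500 kg/ha a.i. Effects were visually rated 0–9 against controls after three to four weeks in the greenhouse.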"}, "[4]": {"system": "TRZAWR (Wheat, Winter, cv Riband)", "experiment": "Postemergence herbicidal evaluation", "type": "in vivo, Triticum aestivum", "settings": "postemergence", "how_it_was_run": "(§3)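 Young plants, roughly two weeks from seeding, receive the active ingredient as a sprayed dispersion (acetone/water 50/50, 0.5% TWEEN 20) at 40 psi. Doses span about 0.0156 to 0.500 kg/ha. A visual score from 0 to 9 compares treated with control plants four to five weeks on.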"}, "SETVI (Foxtail, Green)": {"system": "SETVI (Foxtail, Green)", "experiment": "Preemergence herbicidal evaluation", "type": "in vivo, Setaria viridis", "settings": "rated 4-5 weeks after treatment", "how_it_was_run": "as §1"}, "[5]": {"system": "CHEAL (Lambsquarters, Common)", "experiment": "Preemergence herbicidal evaluation", "type": "in vivo, Chenopodium album", "settings": "rated 4-5 weeks after treatment", "how_it_was_run": "as §1"}, "MOOVA (Monochoria)": {"system": "MOOVA (Monochoria)", "experiment": "Preemergence weed control under flooded paddy conditions", "type": "in vivo, Monochoria vaginalis", "settings": "rated 3-4 weeks after treatment", "how_it_was_run": "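Greenhouse paddy assay. Acetone/water (50/50 v/v) solutions dosed into flood water, equivalent to about 0.0313 to 0.500 kg/ha active ingredient, over seeds planted 0.5 cm deep in silt loam. Score: 0-9 visual, based on stand, vigor, malformation, size and chlorosis, 3 to 4 weeks after treatment.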"}, "ECHCG (Barnyardgrass)": {"system": "ECHCG (Barnyardgrass)", "experiment": "Preemergence herbicidal evaluation", "type": "in vivo, Echinochloa crus-galli", "settings": "rated 4-5 weeks after treatment", "how_it_was_run": "as §1"}, "CYPIR (Rice Flatsedge)": {"system": "CYPIR (Rice Flatsedge)", "experiment": "Postemergence weed control under flooded paddy conditions", "type": "in vivo, Cyperus iria", "settings": "postemergence weeds, 3-4 weeks after treatment", "how_it_was_run": "as §2"}, "ABUTH (Velvetleaf)": {"system": "ABUTH (Velvetleaf)", "experiment": "Postemergence herbicidal evaluation", "type": "in vivo, Abutilon theophrasti", "settings": "postemergence", "how_it_was_run": "as §3"}},
  "data": [
    {"compound": "C=CCN1C(=O)CSC1=Nc1cc(N2C(=O)C3=C(CCCC3)C2=O)c(F)cc1Cl", "note": "[Compound 2, N-{5-[(3-allyl-4-oxo-2-thiazolidinylidene)amino]-4-chloro-2-fluorophenyl}-1-cyclohexene-1,2-dicarboximide]", "values": [
      {"measurement": "ORYSAT preemergence herbicidal rating", "setting": "ORYSAT (Rice, Tebonnet); rate 0.0313 kg/ha", "result": 2.0},
      {"measurement": "ORYSAT preemergence herbicidal rating", "setting": "ORYSAT (Rice, Tebonnet); rate 0.0625 kg/ha", "result": 2.0},
      {"measurement": "ORYSAT preemergence herbicidal rating", "setting": "ORYSAT (Rice, Tebonnet); rate 0.1250 kg/ha", "result": 2.0},
      {"measurement": "ORYSAT preemergence herbicidal rating", "setting": "ORYSAT (Rice, Tebonnet); rate 0.2500 kg/ha", "result": 2.0},
      {"measurement": "ORYSAT preemergence herbicidal rating", "setting": "ORYSAT (Rice, Tebonnet); rate 0.5000 kg/ha", "result": 3.0},
      {"measurement": "Herbicidal rating ECHORC", "setting": "[1]; 0.0313 kg/ha", "result": 2.0},
      {"measurement": "Herbicidal rating ECHORC", "setting": "[1]; 0.0625 kg/ha", "result": 2.0},
      {"measurement": "Herbicidal rating ECHORC", "setting": "[1]; 0.1250 kg/ha", "result": 7.0},
      {"measurement": "Herbicidal rating ECHORC", "setting": "[1]; 0.2500 kg/ha", "result": 8.0},
      {"measurement": "Herbicidal rating ECHORC", "setting": "[1]; 0.5000 kg/ha", "result": 9.0},
      {"measurement": "TRZAWR preemergence herbicidal rating", "setting": "[2]; rate 0.0313 kg/ha", "result": 0.0},
      {"measurement": "TRZAWR preemergence herbicidal rating", "setting": "[2]; rate 0.0625 kg/ha", "result": 0.0},
      {"measurement": "TRZAWR preemergence herbicidal rating", "setting": "[2]; rate 0.1250 kg/ha", "result": 0.0},
      {"measurement": "TRZAWR preemergence herbicidal rating", "setting": "[2]; rate 0.2500 kg/ha", "result": 0.0},
      {"measurement": "TRZAWR preemergence herbicidal rating", "setting": "[2]; rate 0.5000 kg/ha", "result": 0.0},
      {"measurement": "Herbicidal rating ECHORC", "setting": "[3]; rate 0.0313 kg/ha", "result": 1.0},
      {"measurement": "Herbicidal rating ECHORC", "setting": "[3]; rate 0.0625 kg/ha", "result": 1.0},
      {"measurement": "Herbicidal rating ECHORC", "setting": "[3]; rate 0.1250 kg/ha", "result": 3.5},
      {"measurement": "Herbicidal rating ECHORC", "setting": "[3]; rate 0.2500 kg/ha", "result": 4.0},
      {"measurement": "Herbicidal rating ECHORC", "setting": "[3]; rate 0.5000 kg/ha", "result": 4.5},
      {"measurement": "TRZAWR herbicidal rating", "setting": "[4]; rate 0.0157 kg/ha", "result": 1.5},
      {"measurement": "TRZAWR herbicidal rating", "setting": "[4]; rate 0.0313 kg/ha", "result": 2.5},
      {"measurement": "TRZAWR herbicidal rating", "setting": "[4]; rate 0.0625 kg/ha", "result": 3.0},
      {"measurement": "TRZAWR herbicidal rating", "setting": "[4]; rate 0.1250 kg/ha", "result": 2.5},
      {"measurement": "TRZAWR herbicidal rating", "setting": "[4]; rate 0.2500 kg/ha", "result": 2.5},
      {"measurement": "TRZAWR herbicidal rating", "setting": "[4]; rate 0.5000 kg/ha", "result": 3.0},
      {"measurement": "SETVI preemergence herbicidal rating", "setting": "SETVI (Foxtail, Green); rate 0.0313 kg/ha", "result": 0.0},
      {"measurement": "SETVI preemergence herbicidal rating", "setting": "SETVI (Foxtail, Green); rate 0.0625 kg/ha", "result": 0.0},
      {"measurement": "SETVI preemergence herbicidal rating", "setting": "SETVI (Foxtail, Green); rate 0.1250 kg/ha", "result": 6.0},
      {"measurement": "SETVI preemergence herbicidal rating", "setting": "SETVI (Foxtail, Green); rate 0.2500 kg/ha", "result": 6.0},
      {"measurement": "SETVI preemergence herbicidal rating", "setting": "SETVI (Foxtail, Green); rate 0.5000 kg/ha", "result": 9.0},
      {"measurement": "CHEAL preemergence herbicidal rating", "setting": "[5]; rate 0.0313 kg/ha", "result": 7.0},
      {"measurement": "CHEAL preemergence herbicidal rating", "setting": "[5]; rate 0.2500 kg/ha", "result": 9.0},
      {"measurement": "CHEAL preemergence herbicidal rating", "setting": "[5]; rate 0.5000 kg/ha", "result": 9.0},
      {"measurement": "Herbicidal rating MOOVA", "setting": "MOOVA (Monochoria); 0.0313 kg/ha", "result": 4.0},
      {"measurement": "Herbicidal rating MOOVA", "setting": "MOOVA (Monochoria); 0.0625 kg/ha", "result": 9.0},
      {"measurement": "Herbicidal rating MOOVA", "setting": "MOOVA (Monochoria); 0.1250 kg/ha", "result": 9.0},
      {"measurement": "Herbicidal rating MOOVA", "setting": "MOOVA (Monochoria); 0.2500 kg/ha", "result": 9.0},
      {"measurement": "Herbicidal rating MOOVA", "setting": "MOOVA (Monochoria); 0.5000 kg/ha", "result": 9.0},
      {"measurement": "ECHCG preemergence herbicidal rating", "setting": "ECHCG (Barnyardgrass); rate 0.0313 kg/ha", "result": 0.0},
      {"measurement": "ECHCG preemergence herbicidal rating", "setting": "ECHCG (Barnyardgrass); rate 0.0625 kg/ha", "result": 0.0},
      {"measurement": "ECHCG preemergence herbicidal rating", "setting": "ECHCG (Barnyardgrass); rate 0.1250 kg/ha", "result": 4.0},
      {"measurement": "ECHCG preemergence herbicidal rating", "setting": "ECHCG (Barnyardgrass); rate 0.2500 kg/ha", "result": 0.0},
      {"measurement": "ECHCG preemergence herbicidal rating", "setting": "ECHCG (Barnyardgrass); rate 0.5000 kg/ha", "result": 8.0},
      {"measurement": "Herbicidal rating CYPIR", "setting": "CYPIR (Rice Flatsedge); rate 0.0313 kg/ha", "result": 0.0},
      {"measurement": "Herbicidal rating CYPIR", "setting": "CYPIR (Rice Flatsedge); rate 0.0625 kg/ha", "result": 0.0},
      {"measurement": "Herbicidal rating CYPIR", "setting": "CYPIR (Rice Flatsedge); rate 0.1250 kg/ha", "result": 0.0},
      {"measurement": "Herbicidal rating CYPIR", "setting": "CYPIR (Rice Flatsedge); rate 0.2500 kg/ha", "result": 1.0},
      {"measurement": "Herbicidal rating CYPIR", "setting": "CYPIR (Rice Flatsedge); rate 0.5000 kg/ha", "result": 4.0},
      {"measurement": "ABUTH herbicidal rating", "setting": "ABUTH (Velvetleaf); rate 0.0157 kg/ha", "result": 0.0},
      {"measurement": "ABUTH herbicidal rating", "setting": "ABUTH (Velvetleaf); rate 0.0313 kg/ha", "result": 4.0},
      {"measurement": "ABUTH herbicidal rating", "setting": "ABUTH (Velvetleaf); rate 0.0625 kg/ha", "result": 9.0},
      {"measurement": "ABUTH herbicidal rating", "setting": "ABUTH (Velvetleaf); rate 0.1250 kg/ha", "result": 9.0},
      {"measurement": "ABUTH herbicidal rating", "setting": "ABUTH (Velvetleaf); rate 0.2500 kg/ha", "result": 9.0},
      {"measurement": "ABUTH herbicidal rating", "setting": "ABUTH (Velvetleaf); rate 0.5000 kg/ha", "result": 9.0}
    ]}
  ]
}
